Test results taken from patent US20120083522A1, “MODULATION OF INFLAMMATORY RESPONSES BY FACTOR XI” (Isis Pharmaceuitcals, inc., priority 2009, published 2012).

Tests used:
[1] = system: human Factor XI mRNA; experiment: Dose-dependent inhibition in HepB3 cells, electroporation (Example 7); type: cell-based; settings: approx. 16 h
Description: The gapmers were also transfected via electroporation and their dose dependent inhibition of human Factor XI mRNA was measured. Cells were plated at a density of 20,000 cells per well and transfected via electroporation with 41.15 nM, 123.457 nM, 370.37 nM, 1111.11 nM, 3333.33 nM, and 10,000 nM concentrations of antisense oligonucleotide, as specified in Table 15. After a treatment period of approximately 16 hours, RNA was isolated from the cells and human Factor XI mRNA levels were measured by quantitative real-time PCR. Human Factor XI primer probe set RTS 2966 was used to measure mRNA levels. Factor XI mRNA levels were adjusted according to total RNA content, as measured by RIBOGREEN®. Results are presented as percent inhibition of human Factor XI, relative to untreated control cells.

[2] = system: human Factor XI mRNA; experiment: Dose-dependent inhibition in HepB3 cells, lipofectin (Example 7); type: cell-based; settings: approx. 16 h
Description: Cells were plated at a density of 4,000 cells per well and transfected using lipofectin reagent with 2.3 nM, 4.7 nM, 9.4 nM, 18.75 nM, 37.5 nM, and 75 nM concentrations of antisense oligonucleotide, as specified in Table 14. After a treatment period of approximately 16 hours, RNA was isolated from the cells and human Factor XI mRNA levels were measured by quantitative real-time PCR. Human Factor XI primer probe set RTS 2966 was used to measure mRNA levels. Factor XI mRNA levels were adjusted according to total RNA content, as measured by RIBOGREEN®. Results are presented as percent inhibition of Factor XI, relative to untreated control cells.

[3] = system: human Factor XI mRNA; experiment: Dose-dependent inhibition in HepG2 cells, lipofectin (Example 4); type: cell-based; settings: 16 hours
In short: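 Read-out was percent inhibition of Factor XI mRNA relative to untreated controls, by qRT-PCR (RTS 2966) adjusted for RIBOGREEN-measured total RNA. Cells received antisense oligonucleotide at 9.375 to 75 nM (four levels) via lipofectin. Treatment lasted approximately 16 hours, with plating at 10,000 cells per well.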

[4] = Tolerability in Sprague-Dawley rats: body and organ weight (Example 19); type: in vivo; settings: 50 mg/kg s.c. twice per week for 6 weeks, change over weight at start of study
Text: (§1) Urine samples were taken before the start of treatment.
The body weights are presented in Table 78 and are expressed as a percent change over the weights taken at the start of the study.

[5] = system: human Factor XI mRNA; experiment: Dose-dependent inhibition in HepG2 cells, electroporation (Example 5); type: cell-based; settings: approx. 16 h, relative to untreated control cells
Description: The gapmers were also transfected via electroporation and their dose dependent inhibition of human Factor XI mRNA was measured. Cells were plated at a density of 20,000 cells per well and transfected via electroporation with 625 nM, 1250 nM, 2500 nM, 5,000 nM, 10,000 nM, and 20,000 nM concentrations of antisense oligonucleotide, as specified in Table 12. After a treatment period of approximately 16 hours, RNA was isolated from the cells and human Factor XI mRNA levels were measured by quantitative real-time PCR. Human Factor XI primer probe set RTS 2966 was used to measure mRNA levels. Factor XI mRNA levels were adjusted according to total RNA content, as measured by RIBOGREEN®. Results are presented as percent inhibition of human Factor XI, relative to untreated control cells.

[6] = Tolerability in Sprague-Dawley rats: kidney function (Example 19); type: in vivo; settings: Sprague Dawley rats; for urine protein/creatinine ratio, After: after 50 mg/kg s.c. twice per week for 6 weeks; for urine protein/creatinine ratio, Before: before antisense oligonucleotide treatment
Text: as §1

[7] = system: human Factor XI mRNA; experiment: Dose-dependent inhibition in cyno primary hepatocytes, electroporation (Example 6); type: cell-based, cynomolgus monkey; settings: approx. 16 h
Description: Cells were plated at a density of 35,000 cells per well and transfected via electroporation with 0.74 nM, 2.2 nM, 6.7 nM, 20 nM, 60 nM, and 180 nM concentrations of antisense oligonucleotide, as specified in Table 13. After a treatment period of approximately 16 hours, RNA was isolated from the cells and human Factor XI mRNA levels were measured by quantitative real-time PCR. Human Factor XI primer probe set RTS 2966 was used to measure mRNA levels. Factor XI mRNA levels were adjusted according to total RNA content, as measured by RIBOGREEN®. Results are presented as percent inhibition of human Factor XI, relative to untreated control cells.

[8] = system: human Factor XI mRNA; experiment: Dose-dependent inhibition in HepG2 cells, electroporation (Example 4); type: cell-based; settings: 16 hours
In short: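 HepG2 cells electroporated with 0.7, 2.2, 6.7 or 20 μM antisense gapmer and harvested after ~16 h. Factor XI mRNA quantified by qRT-PCR (primer probe set RTS 2966), normalised to total RNA (RIBOGREEN). Reported as percent inhibition versus untreated control cells.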

[9] = system: human Factor XI mRNA; experiment: Dose-dependent inhibition in HepG2 cells, lipofectin (Example 5); type: cell-based; settings: 16 hours
Description: Cells were plated at a density of 10,000 cells per well and transfected using lipofectin reagent with 2.34 nM, 4.69 nM, 9.375 nM, 18.75 nM, 37.5 nM, and 75 nM concentrations of antisense oligonucleotide, as specified in Table 11. After a treatment period of approximately 16 hours, RNA was isolated from the cells and human Factor XI mRNA levels were measured by quantitative real-time PCR. Human Factor XI primer probe set RTS 2966 was used to measure mRNA levels. Factor XI mRNA levels were adjusted according to total RNA content, as measured by RIBOGREEN®. Results are presented as percent inhibition of human Factor XI, relative to untreated control cells.

Substance: 416892 (antisense GCCCTTCATGTCTAGGTCCA; 3-14-3 chimeric gapmer, wing sugar chemistry not given here, further chemistry not given here) [compound 416892]
- percent inhibition of human Factor XI mRNA ([1]; 41.15 nM): 9%
- percent inhibition of human Factor XI mRNA ([1]; 123.457 nM): 12%
- percent inhibition of human Factor XI mRNA ([1]; 370.37 nM): 28%
- percent inhibition of human Factor XI mRNA ([1]; 1111.11 nM): 65%
- percent inhibition of human Factor XI mRNA ([1]; 3333.33 nM): 89%
- percent inhibition of human Factor XI mRNA ([1]; 10000 nM): 98%
- percent inhibition of human Factor XI mRNA ([2]; 2.3 nM): 28%
- percent inhibition of human Factor XI mRNA ([2]; 4.7 nM): 34%
- percent inhibition of human Factor XI mRNA ([2]; 9.4 nM): 50%
- percent inhibition of human Factor XI mRNA ([2]; 18.75 nM): 68%
- percent inhibition of human Factor XI mRNA ([2]; 37.5 nM): 82%
- percent inhibition of human Factor XI mRNA ([2]; 75 nM): 72%
- percent inhibition of Factor XI mRNA, relative to untreated control cells ([3]; 9.375 nM): 16%
- percent inhibition of Factor XI mRNA, relative to untreated control cells ([3]; 18.75 nM): 50%
- percent inhibition of Factor XI mRNA, relative to untreated control cells ([3]; 37.5 nM): 70%
- percent inhibition of Factor XI mRNA, relative to untreated control cells ([3]; 75 nM): 85%
- Percent change in Body weight [4]: −39%
- percent inhibition of human Factor XI mRNA ([5]; 625 nM): 66%
- percent inhibition of human Factor XI mRNA ([5]; 1250 nM): 86%
- percent inhibition of human Factor XI mRNA ([5]; 2500 nM): 96%
- percent inhibition of human Factor XI mRNA ([5]; 5000 nM): 97%
- percent inhibition of human Factor XI mRNA ([5]; 10000 nM): 100%
- percent inhibition of human Factor XI mRNA ([5]; 20000 nM): 100%
- urine protein/creatinine ratio, After [6]: 21.3
- urine protein/creatinine ratio, Before [6]: 0.8
- percent inhibition of human Factor XI mRNA ([7]; 0.74 nM): 20%
- percent inhibition of human Factor XI mRNA ([7]; 2.2 nM): 20%
- percent inhibition of human Factor XI mRNA ([7]; 6.7 nM): 43%
- percent inhibition of human Factor XI mRNA ([7]; 20 nM): 62%
- percent inhibition of human Factor XI mRNA ([7]; 60 nM): 88%
- percent inhibition of human Factor XI mRNA ([7]; 180 nM): 92%
- percent inhibition of Factor XI mRNA, relative to untreated control cells ([8]; 0.7 μM): 14%
- percent inhibition of Factor XI mRNA, relative to untreated control cells ([8]; 2.2 μM): 52%
- percent inhibition of Factor XI mRNA, relative to untreated control cells ([8]; 6.7 μM): 82%
- percent inhibition of Factor XI mRNA, relative to untreated control cells ([8]; 20 μM): 92%
- percent inhibition of human Factor XI mRNA, relative to untreated control cells ([9]; 2.34 nM): 14%
- percent inhibition of human Factor XI mRNA, relative to untreated control cells ([9]; 4.69 nM): 34%
- percent inhibition of human Factor XI mRNA, relative to untreated control cells ([9]; 9.375 nM): 49%
- percent inhibition of human Factor XI mRNA, relative to untreated control cells ([9]; 18.75 nM): 70%
- percent inhibition of human Factor XI mRNA, relative to untreated control cells ([9]; 37.5 nM): 84%
- percent inhibition of human Factor XI mRNA, relative to untreated control cells ([9]; 75 nM): 93%

Substance: 416826 (antisense ATGCCCTTCATGTCTAGGTC; 5-10-5 gapmer, wing sugar chemistry not given here, further chemistry not given here) [compound 416826]
- percent inhibition of human Factor XI mRNA ([1]; 41.15 nM): 0%
- percent inhibition of human Factor XI mRNA ([1]; 123.457 nM): 0%
- percent inhibition of human Factor XI mRNA ([1]; 370.37 nM): 34%
- percent inhibition of human Factor XI mRNA ([1]; 1111.11 nM): 61%
- percent inhibition of human Factor XI mRNA ([1]; 3333.33 nM): 87%
- percent inhibition of human Factor XI mRNA ([1]; 10000 nM): 92%
- percent inhibition of human Factor XI mRNA ([2]; 2.3 nM): 16%
- percent inhibition of human Factor XI mRNA ([2]; 4.7 nM): 28%
- percent inhibition of human Factor XI mRNA ([2]; 9.4 nM): 38%
- percent inhibition of human Factor XI mRNA ([2]; 18.75 nM): 55%
- percent inhibition of human Factor XI mRNA ([2]; 37.5 nM): 64%
- percent inhibition of human Factor XI mRNA ([2]; 75 nM): 66%
- percent inhibition of Factor XI mRNA, relative to untreated control cells ([3]; 9.375 nM): 8%
- percent inhibition of Factor XI mRNA, relative to untreated control cells ([3]; 18.75 nM): 36%
- percent inhibition of Factor XI mRNA, relative to untreated control cells ([3]; 37.5 nM): 58%
- percent inhibition of Factor XI mRNA, relative to untreated control cells ([3]; 75 nM): 84%
- Percent change in Body weight [4]: −40%
- percent inhibition of human Factor XI mRNA ([5]; 625 nM): 67%
- percent inhibition of human Factor XI mRNA ([5]; 1250 nM): 82%
- percent inhibition of human Factor XI mRNA ([5]; 2500 nM): 89%
- percent inhibition of human Factor XI mRNA ([5]; 5000 nM): 92%
- percent inhibition of human Factor XI mRNA ([5]; 10000 nM): 95%
- percent inhibition of human Factor XI mRNA ([5]; 20000 nM): 97%
- urine protein/creatinine ratio, After [6]: 11.4
- urine protein/creatinine ratio, Before [6]: 1.0
- percent inhibition of human Factor XI mRNA ([7]; 0.74 nM): 13%
- percent inhibition of human Factor XI mRNA ([7]; 2.2 nM): 24%
- percent inhibition of human Factor XI mRNA ([7]; 6.7 nM): 34%
- percent inhibition of human Factor XI mRNA ([7]; 20 nM): 67%
- percent inhibition of human Factor XI mRNA ([7]; 60 nM): 69%
- percent inhibition of human Factor XI mRNA ([7]; 180 nM): 71%
- percent inhibition of Factor XI mRNA, relative to untreated control cells ([8]; 0.7 μM): 2%
- percent inhibition of Factor XI mRNA, relative to untreated control cells ([8]; 2.2 μM): 47%
- percent inhibition of Factor XI mRNA, relative to untreated control cells ([8]; 6.7 μM): 86%
- percent inhibition of Factor XI mRNA, relative to untreated control cells ([8]; 20 μM): 82%
- percent inhibition of human Factor XI mRNA, relative to untreated control cells ([9]; 2.34 nM): 15%
- percent inhibition of human Factor XI mRNA, relative to untreated control cells ([9]; 4.69 nM): 22%
- percent inhibition of human Factor XI mRNA, relative to untreated control cells ([9]; 9.375 nM): 32%
- percent inhibition of human Factor XI mRNA, relative to untreated control cells ([9]; 18.75 nM): 54%
- percent inhibition of human Factor XI mRNA, relative to untreated control cells ([9]; 37.5 nM): 76%
- percent inhibition of human Factor XI mRNA, relative to untreated control cells ([9]; 75 nM): 90%
